Patent publication US6762045B2, “Membrane derived caspase-3, compositions comprising the same and methods of use therefor” (Idun Pharmaceuticals, Inc., priority 2000, dated 2004)
Like-named read-outs stand apart in the source and are kept apart here.

Assays:
[1] = target: T1, 697-neo HM (caspase-1 treated) derived caspase (Homo sapiens, UniProt P42574); test: Inhibition of DEVD-amc cleavage, caspase-1 activated 697-neo heavy membranes; type: biochemical
T1 construct: the heavy membrane caspase is comprised of a large 19-kDa subunit and a smaller 12-kDa subunit; endogenous in cells; host or cells: 697-neo / 697-Bcl-2 human lymphoblastoid cells; supernatant assayed
T1 sequence (P42574 14-175): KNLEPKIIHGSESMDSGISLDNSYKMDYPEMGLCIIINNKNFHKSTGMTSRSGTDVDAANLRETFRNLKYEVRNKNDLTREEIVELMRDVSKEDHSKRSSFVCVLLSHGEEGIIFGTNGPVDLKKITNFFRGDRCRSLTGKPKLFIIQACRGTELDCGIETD
T1 sequence (P42574 176-277): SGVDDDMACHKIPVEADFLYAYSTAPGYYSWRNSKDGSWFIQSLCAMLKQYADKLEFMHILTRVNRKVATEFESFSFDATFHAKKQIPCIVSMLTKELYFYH
Protocol: (§1) SEQ ID NO:6) substrate in ICE buffer (20 mM HEPES, 1 mM EDTA, 0.1% CHAPS, 10% sucrose, 5 mM DTT, pH 7.5) in duplicate Cytoplate wells. […] KM values were calculated from these measurements using the equation: where ΔFL/Δt is the observed initial rate of fluorescence change at substrate concentration [S] and (ΔFL/Δt)MAX is the initial rate of fluorescence change at saturating substrate concentrations. For inhibition studies, 50 μl of the enzyme was pretreated with 150 μl inhibitor for 30 min at room temperature prior to the addition of 50 μl of 50 μM substrate solution.

[2] = system: cortical cell HM (caspase-1 treated) derived caspase; test: Inhibition of DEVD-amc cleavage, caspase-1 activated E15 brain cortical cell heavy membranes; type: biochemical, mouse
Protocol: (§2) Caspase activity was measured by mixing 50 μl of an enzyme-containing fraction and 200 μl of 25 μM DEVD-amc (Asp-Glu-Val-Asp-aminomethylcoumarin; SEQ ID NO:6) substrate in ICE buffer (20 mM HEPES, 1 mM EDTA, 0.1% CHAPS, 10% sucrose, 5 mM DTT, pH 7.5) in duplicate Cytoplate wells. Product formation was monitored by the increase in fluorescence (ex=360 nm, em=460 nm) over 1-2 hours at 30° C. using the CytoFluor 4000 plate reader (Perseptive Biosystems, Framingham, Mass.). For kinetic studies, the substrate concentration was varied in the range 1-200 μM. KM values were calculated from these measurements using the equation: […]
(§3) where ΔFL/Δt is the observed initial rate of fluorescence change at substrate concentration [S] and (ΔFL/Δt)MAX is the initial rate of fluorescence change at saturating substrate concentrations. […] Inhibitor IC50 values were determined using the equation: […]
(§4) ΔFL/Δt is the observed initial rate of fluorescence change at inhibitor concentration [I] and (ΔFL/Δt)o is the initial rate fluorescence change for the uninhibited enzyme. […]
(§5) To determine if the presence of membrane derived caspase activity is a general property of mammalian cells, the DEVD-amc cleavage activity in heavy membranes from two other cell sources was measured: mouse E 15 primary brain cortical cells and the mouse dopaminergic MN9D cell line (Choi et al., […] 89:8943-8947, 1992). […]

[3] = target: T2, recombinant human caspase-3 (r-caspase-3 (His)6) (Homo sapiens, UniProt P42574); test: DEVD-amc cleavage by recombinant caspase-3; type: biochemical
T2 construct: The large subunit of purified bacterially expressed caspase-3 migrates as a 17-kDa band; purified fully-processed recombinant human caspase-3; His6 (C); made in house; host or cells: E. coli BL21 (DE3), pET21b; Ni2+ chelating column
T2 sequence (P42574 29-175 limits assumed): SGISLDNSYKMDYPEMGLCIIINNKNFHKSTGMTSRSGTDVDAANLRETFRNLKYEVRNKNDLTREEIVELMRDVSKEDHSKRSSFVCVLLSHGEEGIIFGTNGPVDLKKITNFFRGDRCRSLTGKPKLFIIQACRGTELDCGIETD
T2 sequence (P42574 176-277 limits assumed): T1 sequence (P42574 176-277)
Protocol: (§6) For inhibition studies, 50 μl of the enzyme was pretreated with 150 μl inhibitor for 30 min at room temperature prior to the addition of 50 μl of 50 μM substrate solution.

[4] = target: T3, caspase-1 activation of membrane derived procaspase-3 (Mus musculus, UniProt P29452); test: Caspase-1 mediated activation of membrane procaspase-3 in 697 heavy membranes; type: biochemical, human
T3 construct: contains the p30 caspase-1 cDNA inserted into the Nde I/BamH I sites of the pET3a expression vector; FLAG; made in house; host or cells: caspase-1: E. coli BL21 (DE3) pLysS lysate; procaspase-3: endogenous in 697 cell heavy membranes
T3 sequence (P29452 119-296 limits assumed): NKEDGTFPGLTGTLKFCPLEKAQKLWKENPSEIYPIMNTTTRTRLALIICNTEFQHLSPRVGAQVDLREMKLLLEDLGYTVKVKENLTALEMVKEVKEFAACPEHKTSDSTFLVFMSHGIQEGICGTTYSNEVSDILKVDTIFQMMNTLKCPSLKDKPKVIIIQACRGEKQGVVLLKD
T3 sequence (P29452 315-402 limits assumed): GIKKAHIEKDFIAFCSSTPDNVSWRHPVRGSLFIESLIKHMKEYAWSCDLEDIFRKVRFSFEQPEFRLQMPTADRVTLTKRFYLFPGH
Protocol: Heavy membrane samples were diluted to 1 mg/ml in hypotonic buffer or in 0.25 M sucrose, 10 mM MOPS, 2 mM EDTA, pH 7.4 (Mancini, et al., 1998) containing 5 mM DTT with or without 1% NP-40. […] After the activation period, the heavy membrane pellet was removed from the sample by centrifugation for 10 min at 14,000×g at 4° C. […] In some experiments, caspase-1 activity was rapidly quenched at specific time points by the addition of one-tenth volume 3 μM YVADaldehyde (Bachem Bioscience, King of Prussia, Pa.) prior to centrifugation. To examine the time course of spontaneous activation of caspase activity from membranes, 50 μi of heavy membrane slurry containing 50-100 μg total protein was mixed with 200 μl hypotonic buffer containing 25 μM DEVD-amc substrate and 6 mM DTT in 96 well Cytofluor plates and fluorescence was measured over time. At selected time points, aliquots were removed from some wells, centrifuged for 10 min at 14,000×g to remove the heavy membranes and the supernatant was added back into the 96 well plate to measure the soluble DEVD-amc cleavage activity. […]
In this experiment, heavy membrane fractions (containing 50 μg total protein) from 697-Bcl-2 and 697-neo cells were re-suspended and treated with murine caspase-1 for one hour at room temperature. Following centrifugation, the DEVD-amc cleavage activity of the resulting supernatant was measured.

[5] = target: T4, caspase-1 (Mus musculus, UniProt P29452); test: Caspase-1 inhibition; type: biochemical; conditions: 300 nM
T4 construct: contains the p30 caspase-1 cDNA inserted into the Nde I/BamH I sites of the pET3a expression vector; FLAG; made in house; host or cells: E. coli BL21 (DE3) pLysS, pET3a; used as clarified bacterial lysate
T4 sequence (P29452 119-296 limits assumed): T3 sequence (P29452 119-296 limits assumed)
T4 sequence (P29452 315-402 limits assumed): T3 sequence (P29452 315-402 limits assumed)

[6] = target: T5, 697 Bcl-2 HM (caspase-1 treated) derived caspase (Homo sapiens, UniProt P42574); test: Inhibition of DEVD-amc cleavage, caspase-1 activated 697-Bcl-2 heavy membranes; type: biochemical
T5 construct: the heavy membrane caspase is comprised of a large 19-kDa subunit and a smaller 12-kDa subunit; endogenous in cells; host or cells: 697-neo / 697-Bcl-2 human lymphoblastoid cells; supernatant assayed
T5 sequence (P42574 14-175): T1 sequence (P42574 14-175)
T5 sequence (P42574 176-277): T1 sequence (P42574 176-277)
Protocol: as §1

[7] = target: MN9D HM (caspase-1 treated) derived caspase; test: Inhibition of DEVD-amc cleavage, caspase-1 activated MN9D heavy membranes; type: biochemical, mouse
Protocol: as §2, §3, §4, §5

[8] = target: T6, purified membrane derived caspase-3 (Homo sapiens, UniProt P42574); test: DEVD-AMC cleavage by affinity purified membrane derived caspase-3 from 697 cells; type: biochemical
T6 construct: the heavy membrane caspase is comprised of a large 19-kDa subunit and a smaller 12-kDa subunit; endogenous in cells; host or cells: 697 human lymphoblastoid cells
T6 sequence (P42574 14-175): T1 sequence (P42574 14-175)
T6 sequence (P42574 176-277): T1 sequence (P42574 176-277)
Protocol: as §6

CC(=O)N[C@@H](Cc1ccc(O)cc1)C(=O)N[C@H](C(=O)N[C@@H](C)C(=O)N[C@H](C=O)CC(=O)O)C(C)C [YVAD-ald]
Inhibition of DEVD-AMC hydrolysis activity of caspase-1 activated membrane caspase ([1]; 300 nM): not inhibited
IC50 ([1]; inhibition of DEVD-amc cleavage): > 10 µM
IC50 [2]: > 10 µM
IC50 ([3]; inhibition of DEVD-amc cleavage, read-out: IC50 r-caspase-3 (His)6): > 10 µM
IC50 ([3]; read-out: IC50 caspase-3): > 10 µM
Block of caspase-1 activation of membrane caspase ([4]; 200 nM): completely blocked
Block of activation of DEVD-AMC hydrolytic activity and generation of 20-kDa large subunit ([4]; caspase-1 pretreated with 300 nM): blocks
Inhibition of caspase-1 [5]: completely inhibits
IC50 [6]: > 10 µM
IC50 [7]: > 10 µM

CC(C)[C@H](NC(=O)[C@H](CCC(=O)O)NC(=O)OCc1ccccc1)C(=O)N[C@H](C=O)CC(=O)O [ZEVDald]
IC50 ([8]; inhibition of DEVD-AMC cleavage, Table III, read-out: IC50 Membrane (purified membrane derived caspase-3)): 32 nM

B1: Baculovirus p35: early p35 protein from Autographa californica nuclear polyhedrosis virus, recombinant (protein)
chain: MCVIFPVEIDVSQTIIRDCQVDKQTRELVYINKIMNTQLTKPVLMMFNISGPIRSVTRKNNNLRDRIKSKVDEQFDQLERDYSDQMDGFHDSIKYFKDEHYSVSCQNGSVLKSKFAKILKSHDYTDKKSIEAYEKYCLPKLVDERNDYYVAVCVLKPGFENGSNQVLSFEYNPIGNKVIVPFAHEINDTGLYEYDVVAYVDSVQFDGEQFEEFVQSLILPSSFKNSEKVLYYNEASKNKSMIYKALEFTTESSWGKSEKYNWKIFCNGFIYDKKSKVLYVKLHNVTSALNKNVILNTIK
IC50 ([3]; inhibition of DEVD-AMC cleavage, Table III, read-out: IC50 Recombinant (caspase-3)): 4.1e-05 µM
IC50 ([8]; read-out: IC50 heavy membrane caspase from 697 cells): 0.074 nM
